Test results taken from patent EP4670719A1, “PHARMACEUTICAL COMPOSITION OF BENZO NITROGEN HETEROAROMATIC RING DERIVATIVE AND USE THEREOF IN MEDICINE” (Haisco Pharmaceutical Group Co., Ltd., priority 2023, dated 2024).

Key:
[1] = test system: complement alternative pathway; experiment: Test of inhibitory effect on the complement alternative pathway (IBL alternative pathway kit, LPS-coated plate); format: biochemical, healthy volunteers; conditions: inhibiting the alternative pathway; diluted serum, 30 min pretreatment, 1 h at 37°C
Procedure: The inhibitory effect of the compounds on the complement alternative pathway was detected using the IBL alternative pathway kit (COMPL AP330 RUO). Serum from healthy volunteers was collected and 1 portion was diluted with a buffer of 20 mM EDTA in gelatin (0.15 mM CaCl2, 141 mM NaCl, 4.5 mM MgCl2, 4.2 mM HEPES, and 0.1% gelatin at pH 7.4) to 50% (v/v), and 1 portion was diluted to 50% (v/v) with a buffer of 20 mM EGTA in gelatin. The compounds were prepared in DMSO to a working solution 100 times the final concentration. Before use, 50% of the above serum was diluted 1/18 with an AP diluent in the kit. 1 part of the compound working solution (v/v) or DMSO (positive control PC) was added to 99 parts of the diluted serum containing EGTA for pretreatment for 30 min, and 1 part of DMSO (v/v) was added to 99 parts of the diluted serum containing EDTA, as negative control (NC). The serum pretreated with the above compounds (or DMSO) was added at […] to an LPS-coated 96-well plate and incubated at 37°C for 1 h, and the plate was washed 3 times with washing solution in the kit, and the conjugated chromogenic substrate was added according to the instruction in the kit, and the absorbance was read at 405 nm with a microplate reader. The inhibitory activity of the compounds on alternative pathway was calculated using the following formula. […]

[2] = i.g. (10 mg/kg)

| AUC0-24 h ([2]; rat plasma) [ng·h/mL] | Cmax ([2]; rat plasma) [ng/mL] | T1/2 ([2]; rat plasma) [h] | Tmax ([2]; rat plasma) [h] | F% ([2]; rats) [%] | SMILES | IC50 [1] [nM] |
| --- | --- | --- | --- | --- | --- | --- |
|  |  |  |  |  | COc1cc(C)c2[nH]ccc2c1CN1CC[C@@H](C2CC2)C[C@H]1c1ccc(C(=O)O)cc1 [Trifluoroacetate of compound 2] | < 200 |
|  |  |  |  |  | [2H]C([2H])([2H])Oc1cc(C)c2[nH]ccc2c1CN1CC[C@@H](C2CC2)C[C@H]1c1ccc(C(=O)O)cc1 [Trifluoroacetate of compound 1] | < 200 |
| 9867 | 867 | 3.39 | 3.5 | 49 | CCO[C@H]1CCN(Cc2c(OC)cc(C)c3[nH]ccc23)[C@H](c2ccc(C(=O)O)cc2)C1 [LNP023] |  |
